From patent publication US10800791B2, “Triazole ACC inhibitors and uses thereof” (Gilead Apollo, LLC, priority 2015, dated 2020)
≈ marks a conversion by molar mass, not a printed value. Read-outs that look alike come from different tables or passages of the source.

Legend:
[1] = test system: Phytophthora capsici (Pc); assay: Growth inhibition assay of fungal pathogens, Pc; assay type: cell-based; conditions: 48 h
How it was run: (§1)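 Read-out: OD600 plus visual rating at 24 and 48 h, blank (media + 2% DMSO) subtracted. Percent inhibition was derived at 48 h versus the 2% DMSO control. Spores were grown in 17% V8 broth with compound at 50/10/2 or 2/0.4/0.08 ppm final.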

Botrtyis cinerea (Bc) = assay: Growth inhibition assay of fungal pathogens, Bc; assay type: cell-based; conditions: 48 h
How it was run: as §1

Diplodia maydis (Dm) = assay: Growth inhibition assay of fungal pathogens, Dm; assay type: cell-based; conditions: Stenocarpella maydis, 48 h
How it was run: as §1

[2] = test system: Collectotrichum graminicola (Cg); assay: Growth inhibition assay of fungal pathogens, Cg; assay type: cell-based; conditions: 48 h
How it was run: as §1

Septoria tritici (St) = assay: Growth inhibition assay of fungal pathogens, St; assay type: cell-based; conditions: Zymoseptoria tritici, 48 h
How it was run: as §1

fungal (fACC2) = fungal (fACC2) (UniProt Q00955); conditions: read-out: fACC2 (in vitro ACC2 Inhibition Assay, IC50), ADP-Glo, 5 nM ACC2, 20 μM ATP, 20 μM acetyl-CoA
fungal (fACC2), sequence (Q00955 whole entry): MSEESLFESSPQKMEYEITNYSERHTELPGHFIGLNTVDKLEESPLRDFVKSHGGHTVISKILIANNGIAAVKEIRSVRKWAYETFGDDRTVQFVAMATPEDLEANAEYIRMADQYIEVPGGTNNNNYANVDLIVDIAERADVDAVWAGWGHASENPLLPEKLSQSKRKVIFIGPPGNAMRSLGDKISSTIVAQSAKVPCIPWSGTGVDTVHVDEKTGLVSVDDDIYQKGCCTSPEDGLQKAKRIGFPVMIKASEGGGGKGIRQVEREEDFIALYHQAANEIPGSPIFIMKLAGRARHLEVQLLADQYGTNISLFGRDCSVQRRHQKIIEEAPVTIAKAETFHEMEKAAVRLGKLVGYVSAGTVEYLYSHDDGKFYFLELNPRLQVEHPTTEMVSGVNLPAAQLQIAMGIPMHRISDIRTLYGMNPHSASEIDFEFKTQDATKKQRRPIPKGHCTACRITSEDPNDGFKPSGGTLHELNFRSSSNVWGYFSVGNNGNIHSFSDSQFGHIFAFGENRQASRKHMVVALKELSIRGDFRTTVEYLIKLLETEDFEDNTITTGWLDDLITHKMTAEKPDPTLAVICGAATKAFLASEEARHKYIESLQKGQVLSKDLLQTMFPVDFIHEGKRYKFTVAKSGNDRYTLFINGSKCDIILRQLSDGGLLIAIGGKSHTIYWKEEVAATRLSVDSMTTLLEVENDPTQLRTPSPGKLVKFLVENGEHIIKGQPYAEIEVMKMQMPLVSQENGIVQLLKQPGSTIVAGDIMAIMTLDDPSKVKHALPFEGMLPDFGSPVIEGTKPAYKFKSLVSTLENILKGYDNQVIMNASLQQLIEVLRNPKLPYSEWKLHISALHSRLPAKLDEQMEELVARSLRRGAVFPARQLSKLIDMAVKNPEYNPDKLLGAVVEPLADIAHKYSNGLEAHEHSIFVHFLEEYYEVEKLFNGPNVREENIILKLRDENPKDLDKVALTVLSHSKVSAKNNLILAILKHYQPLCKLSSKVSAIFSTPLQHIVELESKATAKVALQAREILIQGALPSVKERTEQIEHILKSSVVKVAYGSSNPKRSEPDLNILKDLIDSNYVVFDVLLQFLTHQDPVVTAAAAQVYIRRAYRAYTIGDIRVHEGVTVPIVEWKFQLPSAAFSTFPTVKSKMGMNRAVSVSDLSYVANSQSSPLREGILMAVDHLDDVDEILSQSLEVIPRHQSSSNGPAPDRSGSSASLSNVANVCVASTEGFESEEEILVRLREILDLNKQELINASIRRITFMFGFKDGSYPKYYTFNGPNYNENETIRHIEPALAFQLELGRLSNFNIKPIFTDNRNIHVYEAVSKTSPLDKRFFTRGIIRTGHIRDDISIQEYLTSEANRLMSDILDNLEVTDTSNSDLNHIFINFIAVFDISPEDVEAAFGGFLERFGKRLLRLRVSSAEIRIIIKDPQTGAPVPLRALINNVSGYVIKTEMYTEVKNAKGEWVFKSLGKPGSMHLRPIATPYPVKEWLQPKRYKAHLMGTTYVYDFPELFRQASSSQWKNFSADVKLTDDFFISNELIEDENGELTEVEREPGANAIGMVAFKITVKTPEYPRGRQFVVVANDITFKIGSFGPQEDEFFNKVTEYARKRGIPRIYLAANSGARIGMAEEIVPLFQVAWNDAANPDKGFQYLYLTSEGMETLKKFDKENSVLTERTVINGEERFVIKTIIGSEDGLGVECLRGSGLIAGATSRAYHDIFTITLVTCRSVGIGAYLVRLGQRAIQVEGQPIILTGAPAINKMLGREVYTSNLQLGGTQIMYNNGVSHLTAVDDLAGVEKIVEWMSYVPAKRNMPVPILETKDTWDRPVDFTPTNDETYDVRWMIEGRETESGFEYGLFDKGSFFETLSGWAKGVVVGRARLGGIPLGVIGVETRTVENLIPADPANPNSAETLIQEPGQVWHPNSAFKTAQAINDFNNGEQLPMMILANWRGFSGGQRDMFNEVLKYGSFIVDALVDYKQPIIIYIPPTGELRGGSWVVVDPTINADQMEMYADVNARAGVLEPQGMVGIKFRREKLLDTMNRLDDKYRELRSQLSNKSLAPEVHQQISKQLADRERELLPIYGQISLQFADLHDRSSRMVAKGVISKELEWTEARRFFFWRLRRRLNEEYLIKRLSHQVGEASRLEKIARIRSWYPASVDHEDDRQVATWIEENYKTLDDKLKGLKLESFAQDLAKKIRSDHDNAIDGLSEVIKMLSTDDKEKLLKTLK

C. parapsilosis = assay: Antifungal Activity Assay (broth microtiter MIC), C. parapsilosis; assay type: cell-based, Candida parapsilosis; conditions: Lodderomyces parapsilosis, ATCC22019, 48 h
How it was run: (§2)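 CLSI M27-A3 microdilution; RPMI 1640+MOPS; 2.5×10^3 CFU/mL final inoculum; cultures from Sabouraud dextrose agar, 35° C overnight; compound working solution 128 μg/mL from 1 mg/mL DMSO stock; visual MIC at 48 h vs growth control.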

[3] = test system: Fusarium virguliforme (Fv); assay: Growth inhibition assay of fungal pathogens, Fv; assay type: cell-based; conditions: 48 h
How it was run: as §1

C. albicans = assay: Antifungal Activity Assay (broth microtiter MIC), C. albicans; assay type: cell-based, Candida albicans; conditions: Candida albicans, ATCC90028, 48 h
How it was run: as §2

C. krusei = assay: Antifungal Activity Assay (broth microtiter MIC), C. krusei; assay type: cell-based, Candida krusei; conditions: Pichia kudriavzevii, ATCC6258, 48 h
How it was run: as §2

[4] = test system: Fusarium moniliforme (Fm); assay: Growth inhibition assay of fungal pathogens, Fm; assay type: cell-based; conditions: for IC90: Fusarium verticillioides, 48 h, read-out: Concentration at 90% Inhibition Fm
How it was run: as §1

[5] = Fusarium moniliforme, growth inhibition at 48 hours vs 2% DMSO control

C=CCO[C@@H](Cn1c(=O)n(C(C)(C)C(=O)NC(C)C)c(=O)c2c(C)c(-n3nccn3)sc21)c1cc(F)ccc1OC [Compound I-72, (R)-2-(1-(2-(allyloxy)-2-(5-fluoro-2-methoxyphenyl)ethyl)-5-methyl-2,4-dioxo-6-(2H-1,2,3-triazol-2-yl)-1,4-dihydrothieno[2,3-d]pyrimidin-3(2H)-yl)-N-isopropyl-2-methylpropanamide]
IC90 ([1]; read-out: Concentration at 90% Inhibition Pc, Phytophthora capsici, growth inhibition at 48 hours vs 2% DMSO control): > 50 µg/mL | IC90 ([1]; read-out: Concentration at 90% Inhibition Pc, Phytophthora capsici, growth inhibition vs 2% DMSO control at 48 hours): > 50 µg/mL | IC90 (Botrtyis cinerea (Bc); read-out: Concentration at 90% Inhibition Bc, Botrtyis cinerea, growth inhibition at 48 hours vs 2% DMSO control): 2 µg/mL (≈ 3.42 µM) | IC90 (Botrtyis cinerea (Bc); read-out: Concentration at 90% Inhibition Bc, Botrtyis cinerea, growth inhibition vs 2% DMSO control at 48 hours): 2 µg/mL (≈ 3.42 µM) | IC90 (Diplodia maydis (Dm); read-out: Concentration at 90% Inhibition Dm, Diplodia maydis, growth inhibition at 48 hours vs 2% DMSO control): 2 µg/mL (≈ 3.42 µM) | IC90 (Diplodia maydis (Dm); read-out: Concentration at 90% Inhibition Dm, Diplodia maydis, growth inhibition vs 2% DMSO control at 48 hours): 2 µg/mL (≈ 3.42 µM) | IC90 ([2]; read-out: Concentration at 90% Inhibition Cg, Collectotrichum graminicola, growth inhibition at 48 hours vs 2% DMSO control): 2 µg/mL (≈ 3.42 µM) | IC90 ([2]; read-out: Concentration at 90% Inhibition Cg, Collectotrichum graminicola, growth inhibition vs 2% DMSO control at 48 hours): 2 µg/mL (≈ 3.42 µM) | IC90 (Septoria tritici (St); read-out: Concentration at 90% Inhibition St, Septoria tritici, growth inhibition at 48 hours vs 2% DMSO control): > 50 µg/mL | IC90 (Septoria tritici (St); read-out: Concentration at 90% Inhibition St, Septoria tritici, growth inhibition vs 2% DMSO control at 48 hours): > 50 µg/mL | IC50 (fungal (fACC2); Table 2a): 1 to 5 nM | IC50 (fungal (fACC2); Table 2b, additional results): 1 to 5 nM | MIC (C. parapsilosis; read-out: MIC, C. parapsilosis ATCC 22019, Table 3a, 3 replicates, MIC recorded at 48 h): 1.1 to 2 µg/mL (≈ 1.88 to 3.42 µM) | MIC (C. parapsilosis; read-out: MIC, C. parapsilosis ATCC 22019, Table 3b (additional results), 3 replicates, MIC recorded at 48 h): 1.01 to 2 µg/mL (≈ 1.73 to 3.42 µM) | IC90 ([3]; read-out: Concentration at 90% Inhibition Fv, Fusarium virguliforme, growth inhibition at 48 hours vs 2% DMSO control): 0.4 µg/mL (≈ 0.684 µM) | IC90 ([3]; read-out: Concentration at 90% Inhibition Fv, Fusarium virguliforme, growth inhibition vs 2% DMSO control at 48 hours): 0.4 µg/mL (≈ 0.684 µM) | MIC (C. albicans; read-out: MIC, C. albicans ATCC 90028, Table 3a, 3 replicates, MIC recorded at 48 h): 2.1 to 4 µg/mL (≈ 3.59 to 6.84 µM) | MIC (C. albicans; read-out: MIC, C. albicans ATCC 90028, Table 3b (additional results), 3 replicates, MIC recorded at 48 h): 1.01 to 2 µg/mL (≈ 1.73 to 3.42 µM) | MIC (C. krusei; read-out: MIC, C. krusei ATCC 6258, Table 3a, 3 replicates, MIC recorded at 48 h): 0.25 to 1 µg/mL (≈ 0.428 to 1.71 µM) | MIC (C. krusei; read-out: MIC, C. krusei ATCC 6258, Table 3b (additional results), 3 replicates, MIC recorded at 48 h): 0.25 to 1 µg/mL (≈ 0.428 to 1.71 µM) | Concentration at 90% Inhibition Fm [4, 5]: AA (compound concentration of 0.08 ppm at 90% inhibition of fungal pathogens) | IC90 [4]: 0.08 µg/mL (≈ 0.137 µM)

COc1ccc(F)cc1[C@H](Cn1c(=O)n(C(C)(C)C(=O)NC2CC2)c(=O)c2c(C)c(-n3nccn3)sc21)OC(C)C [Compound I-73, (R)—N-cyclopropyl-2-(1-(2-(5-fluoro-2-methoxyphenyl)-2-isopropoxyethyl)-5-methyl-2,4-dioxo-6-(2H-1,2,3-triazol-2-yl)-1,4-dihydrothieno[2,3-d]pyrimidin-3(2H)-yl)-2-methylpropanamide]
IC90 ([1]; growth inhibition at 48 hours vs 2% DMSO control, read-out: Concentration at 90% Inhibition Pc): > 50 µg/mL | IC90 ([1]; growth inhibition vs 2% DMSO control at 48 hours, read-out: Concentration at 90% Inhibition Pc): > 50 µg/mL | IC90 (Botrtyis cinerea (Bc); Botrtyis cinerea, growth inhibition at 48 hours vs 2% DMSO control, read-out: Concentration at 90% Inhibition Bc): 2 µg/mL (≈ 3.42 µM) | IC90 (Botrtyis cinerea (Bc); Botrtyis cinerea, growth inhibition vs 2% DMSO control at 48 hours, read-out: Concentration at 90% Inhibition Bc): 2 µg/mL (≈ 3.42 µM) | IC90 (Diplodia maydis (Dm); Diplodia maydis, growth inhibition at 48 hours vs 2% DMSO control, read-out: Concentration at 90% Inhibition Dm): 2 µg/mL (≈ 3.42 µM) | IC90 (Diplodia maydis (Dm); Diplodia maydis, growth inhibition vs 2% DMSO control at 48 hours, read-out: Concentration at 90% Inhibition Dm): 2 µg/mL (≈ 3.42 µM) | IC90 ([2]; Collectotrichum graminicola, growth inhibition at 48 hours vs 2% DMSO control, read-out: Concentration at 90% Inhibition Cg): 2 µg/mL (≈ 3.42 µM) | IC90 ([2]; Collectotrichum graminicola, growth inhibition vs 2% DMSO control at 48 hours, read-out: Concentration at 90% Inhibition Cg): 2 µg/mL (≈ 3.42 µM) | IC90 (Septoria tritici (St); Septoria tritici, growth inhibition at 48 hours vs 2% DMSO control, read-out: Concentration at 90% Inhibition St): > 50 µg/mL | IC90 (Septoria tritici (St); Septoria tritici, growth inhibition vs 2% DMSO control at 48 hours, read-out: Concentration at 90% Inhibition St): > 50 µg/mL | IC50 (fungal (fACC2); Table 2a): 1 to 5 nM | IC50 (fungal (fACC2); Table 2b, additional results): 1 to 5 nM | MIC (C. parapsilosis; Table 3a, ATCC 22019, 3 replicates, MIC recorded at 48 h, read-out: MIC, C. parapsilosis ATCC 22019): 0.25 to 1 µg/mL (≈ 0.428 to 1.71 µM) | MIC (C. parapsilosis; Table 3b (additional results), ATCC 22019, 3 replicates, MIC recorded at 48 h, read-out: MIC, C. parapsilosis ATCC 22019): 1.01 to 2 µg/mL (≈ 1.73 to 3.42 µM) | IC90 ([3]; growth inhibition at 48 hours vs 2% DMSO control, read-out: Concentration at 90% Inhibition Fv): 0.4 µg/mL (≈ 0.684 µM) | IC90 ([3]; growth inhibition vs 2% DMSO control at 48 hours, read-out: Concentration at 90% Inhibition Fv): 0.4 µg/mL (≈ 0.684 µM) | MIC (C. albicans; Table 3a, ATCC 90028, 3 replicates, MIC recorded at 48 h, read-out: MIC, C. albicans ATCC 90028): 0.25 to 1 µg/mL (≈ 0.428 to 1.71 µM) | MIC (C. albicans; Table 3b (additional results), ATCC 90028, 3 replicates, MIC recorded at 48 h, read-out: MIC, C. albicans ATCC 90028): 0.25 to 1 µg/mL (≈ 0.428 to 1.71 µM) | MIC (C. krusei; Table 3a, ATCC 6258, 3 replicates, MIC recorded at 48 h, read-out: MIC, C. krusei ATCC 6258): 0.25 to 1 µg/mL (≈ 0.428 to 1.71 µM) | MIC (C. krusei; Table 3b (additional results), ATCC 6258, 3 replicates, MIC recorded at 48 h, read-out: MIC, C. krusei ATCC 6258): 0.06 to 0.249 µg/mL (≈ 0.103 to 0.426 µM) | IC90 [4, 5]: 0.08 µg/mL (≈ 0.137 µM) | IC90 ([4]; Fusarium moniliforme, growth inhibition vs 2% DMSO control at 48 hours): 0.08 µg/mL (≈ 0.137 µM)
